Tested on: subjects with TRD
Assay: Adverse events (TEAEs, SAEs) in the TRD study
Type: in vivo, human
Conditions: 30 mg (n = 33)
Source text: The definitions of an AE and SAE can be found in Section F. AEs were reported by the subject (or, when appropriate, by a caregiver, surrogate, or the subject's legally authorized representative). The Investigator and any designees were responsible for detecting, documenting, and recording events that meet the definition of an AE or SAE and remained responsible for following up AEs that were serious, considered related to the study treatment or study procedures, or that caused the subject to discontinue from the study.
All AEs were collected from the signing of the ICF until the second follow-up visit (Day 15) at the time points specified in the Schedule of Activities (Section C). Medical occurrences that began before the start of study treatment but after obtaining informed consent were recorded on the Medical History/Current Medical Conditions section of the CRF, not the AE section. All SAEs were recorded and reported to the Sponsor or designee within 24 hours as indicated in Section F. The Investigator submitted any updated SAE data to the Sponsor or designee within 24 hours of it being available. Investigators were not obligated to actively seek AE or SAE information after the conclusion of study participation. However, if the Investigator learns of any SAE, including a death, at any time after a subject has been discharged from the study, and he/she considers the event to be reasonably related to the study treatment or study participation, the Investigator must promptly notify the Sponsor or designee. The method of recording, evaluating, and assessing the causality of AEs and SAEs and the procedures for completing and transmitting SAE reports are provided in Section F.
An AE is any untoward medical occurrence in a patient or subject, temporally associated with the use of study treatment, whether or not considered related to the study treatment. An AE can therefore be any unfavorable and unintended sign (including an abnormal laboratory finding), symptom, or disease (new or exacerbated) temporally associated with the use of study treatment.
If an event is not an AE per the definition above, then it cannot be an SAE even if serious conditions are met (e.g., hospitalization for signs/symptoms of the disease under study). A Serious Adverse Event (SAE) is defined as any untoward medical occurrence that, at any dose: a) results in death; b) is life-threatening; c) requires inpatient hospitalization or prolongation of existing hospitalization; d) results in persistent disability/incapacity; or e) is a congenital anomaly/birth defect. The term “life-threatening” in the definition of “serious” refers to an event in which the subject was at risk of death at the time of the event. […] In general, hospitalization signifies that the subject has been detained (usually involving at least an overnight stay) at the hospital or emergency ward for observation and/or treatment that would not have been appropriate in the physician's office or outpatient setting. Complications that occur during hospitalization are AEs. If a complication prolongs hospitalization or fulfills any other serious criteria, the event is serious. When in doubt as to whether “hospitalization” occurred or was necessary, the AE should be considered serious. […] The term disability means a substantial disruption of a person's ability to conduct normal life functions.
(MedDRA; Version 23.0 or higher). Treatment-emergent adverse events (TEAEs) are AEs with onset or worsening after the start of study treatment. The AE summaries will be primarily based on TEAEs. The number and percentage of subjects with TEAEs will be summarized by treatment group, system organ class, and preferred term for all TEAEs, treatment-related TEAEs, SAEs, serious TEAEs, severe TEAEs, TEAEs of special interest, and all TEAEs leading to study drug discontinuation. All TEAEs will be further summarized by maximum severity and causality. The TEAEs of special interest will be identified in the SAP. […]

CN[C@@]1(c2ccccc2Cl)CCCCC1=O [PCN 101]
(6): TEAE PT Dizziness: (%) of subjects
2: TEAE PT Dizziness: number of subjects
(27): TEAE SOC Nervous system disorders: (%) of subjects
(12): TEAE PT Derealisation: (%) of subjects | TEAE PT Somnolence: (%) of subjects | TEAE SOC Psychiatric disorders: (%) of subjects
4: TEAE PT Derealisation: number of subjects | TEAE PT Somnolence: number of subjects | TEAE SOC Psychiatric disorders: number of subjects
(33): Subjects with any treatment-emergent adverse events: (%) of subjects
(0): TEAE PT Alopecia: (%) of subjects | TEAE PT Aversion: (%) of subjects | TEAE PT Balance disorder: (%) of subjects | TEAE PT Blood pressure increased: (%) of subjects | TEAE PT Bruxism: (%) of subjects | TEAE PT Confusional state: (%) of subjects | TEAE PT Defect conduction intraventricular: (%) of subjects | TEAE PT Diarrhoea: (%) of subjects | TEAE PT Dissociation: (%) of subjects | TEAE PT Dry mouth: (%) of subjects | TEAE PT Dysarthria: (%) of subjects | TEAE PT Energy increased: (%) of subjects | TEAE PT Euphoric mood: (%) of subjects | TEAE PT Fatigue: (%) of subjects | TEAE PT Feeling abnormal: (%) of subjects | TEAE PT Feeling drunk: (%) of subjects | TEAE PT Hyperacusis: (%) of subjects | TEAE PT Hyperphagia: (%) of subjects | TEAE PT Hypoaesthesia oral: (%) of subjects | TEAE PT Hypoaesthesia: (%) of subjects | TEAE PT Increased appetite: (%) of subjects | TEAE PT Influenza like illness: (%) of subjects | TEAE PT Infusion site hypoaesthesia: (%) of subjects | TEAE PT Left ventricular hypertrophy: (%) of subjects | TEAE PT Lethargy: (%) of subjects | TEAE PT Limb discomfort: (%) of subjects | TEAE PT Logorrhoea: (%) of subjects | TEAE PT Memory impairment: (%) of subjects | TEAE PT Muscular weakness: (%) of subjects | TEAE PT Nausea: (%) of subjects | TEAE PT Paraesthesia: (%) of subjects | TEAE PT Rhinorrhoea: (%) of subjects | TEAE PT Sedation: (%) of subjects | TEAE PT Sinusitis: (%) of subjects | TEAE PT Skin abrasion: (%) of subjects | TEAE PT Slow speech: (%) of subjects | TEAE PT Smoke sensitivity: (%) of subjects | TEAE PT Tachycardia: (%) of subjects | TEAE PT Throat tightness: (%) of subjects | TEAE PT Time perception altered: (%) of subjects | TEAE PT Venous injury: (%) of subjects | TEAE PT Vision blurred: (%) of subjects | TEAE PT Visual impairment: (%) of subjects | TEAE SOC Cardiac disorders: (%) of subjects | TEAE SOC Eye disorders: (%) of subjects | TEAE SOC Gastrointestinal disorders: (%) of subjects | TEAE SOC Immune system disorders: (%) of subjects | TEAE SOC Investigations: (%) of subjects | TEAE SOC Metabolism and nutrition disorders: (%) of subjects | TEAE SOC Musculoskeletal and connective tissue disorders: (%) of subjects
11: Number of subjects with any treatment-emergent adverse events
22: Number of treatment-emergent adverse events
(3): TEAE PT Dyspnoea exertional: (%) of subjects | TEAE PT Haematuria: (%) of subjects | TEAE PT Hyperhidrosis: (%) of subjects | TEAE PT Muscle strain: (%) of subjects | TEAE PT Sensory disturbance: (%) of subjects | TEAE PT Urinary tract infection: (%) of subjects | TEAE PT Vertigo: (%) of subjects | TEAE PT Vessel puncture site erythema: (%) of subjects | TEAE SOC Ear and labyrinth disorders: (%) of subjects | TEAE SOC General disorders and administration site conditions: (%) of subjects | TEAE SOC Infections and infestations: (%) of subjects | TEAE SOC Injury, poisoning and procedural complications: (%) of subjects | TEAE SOC Renal and urinary disorders: (%) of subjects | TEAE SOC Respiratory, thoracic and mediastinal disorders: (%) of subjects | TEAE SOC Skin and subcutaneous tissue disorders: (%) of subjects
3: TEAE PT Headache: number of subjects
1: TEAE PT Dyspnoea exertional: number of subjects | TEAE PT Haematuria: number of subjects | TEAE PT Hyperhidrosis: number of subjects | TEAE PT Muscle strain: number of subjects | TEAE PT Sensory disturbance: number of subjects | TEAE PT Urinary tract infection: number of subjects | TEAE PT Vertigo: number of subjects | TEAE PT Vessel puncture site erythema: number of subjects | TEAE SOC Ear and labyrinth disorders: number of subjects | TEAE SOC General disorders and administration site conditions: number of subjects | TEAE SOC Infections and infestations: number of subjects | TEAE SOC Injury, poisoning and procedural complications: number of subjects | TEAE SOC Renal and urinary disorders: number of subjects | TEAE SOC Respiratory, thoracic and mediastinal disorders: number of subjects | TEAE SOC Skin and subcutaneous tissue disorders: number of subjects
(9): TEAE PT Headache: (%) of subjects
9: TEAE SOC Nervous system disorders: number of subjects
0: TEAE PT Alopecia: number of subjects | TEAE PT Aversion: number of subjects | TEAE PT Balance disorder: number of subjects | TEAE PT Blood pressure increased: number of subjects | TEAE PT Bruxism: number of subjects | TEAE PT Confusional state: number of subjects | TEAE PT Defect conduction intraventricular: number of subjects | TEAE PT Diarrhoea: number of subjects | TEAE PT Dissociation: number of subjects | TEAE PT Dry mouth: number of subjects | TEAE PT Dysarthria: number of subjects | TEAE PT Energy increased: number of subjects | TEAE PT Euphoric mood: number of subjects | TEAE PT Fatigue: number of subjects | TEAE PT Feeling abnormal: number of subjects | TEAE PT Feeling drunk: number of subjects | TEAE PT Hyperacusis: number of subjects | TEAE PT Hyperphagia: number of subjects | TEAE PT Hypoaesthesia oral: number of subjects | TEAE PT Hypoaesthesia: number of subjects | TEAE PT Increased appetite: number of subjects | TEAE PT Influenza like illness: number of subjects | TEAE PT Infusion site hypoaesthesia: number of subjects | TEAE PT Left ventricular hypertrophy: number of subjects | TEAE PT Lethargy: number of subjects | TEAE PT Limb discomfort: number of subjects | TEAE PT Logorrhoea: number of subjects | TEAE PT Memory impairment: number of subjects | TEAE PT Muscular weakness: number of subjects | TEAE PT Nausea: number of subjects | TEAE PT Paraesthesia: number of subjects | TEAE PT Rhinorrhoea: number of subjects | TEAE PT Sedation: number of subjects | TEAE PT Sinusitis: number of subjects | TEAE PT Skin abrasion: number of subjects | TEAE PT Slow speech: number of subjects | TEAE PT Smoke sensitivity: number of subjects | TEAE PT Tachycardia: number of subjects | TEAE PT Throat tightness: number of subjects | TEAE PT Time perception altered: number of subjects | TEAE PT Venous injury: number of subjects | TEAE PT Vision blurred: number of subjects | TEAE PT Visual impairment: number of subjects | TEAE SOC Cardiac disorders: number of subjects | TEAE SOC Eye disorders: number of subjects | TEAE SOC Gastrointestinal disorders: number of subjects | TEAE SOC Immune system disorders: number of subjects | TEAE SOC Investigations: number of subjects | TEAE SOC Metabolism and nutrition disorders: number of subjects | TEAE SOC Musculoskeletal and connective tissue disorders: number of subjects

Source: patent publication US20260027068A1, “METHODS OF ADM[…]-KETAMINE” (Perception Neuroscience, Inc., priority 2022, published 2026)
